Results from article PMC11921344, “Antimicrobial peptide DiPGLa-H exhibits the most outstanding anti-infective activity among the PGLa variants based on a systematic comparison” (Applied and Environmental Microbiology, 2025).
Read-outs that look alike come from different tables or passages of the source. Where no end group is shown, it is not given here.

What was measured:
[1] = tested on: Gram-positive bacteria; assay: Geometric mean MIC and therapeutic index, Gram-positive; assay type: cell-based; settings: geometric mean of the peptide MICs against Gram-positive strains
Experimental: (§1) The antibacterial activity was evaluated using a standard MIC and MBC assay according to the National Committee for Clinical Laboratory Standards (NCCLS). MIC, MBC assay, and time-kill curves for the optimal peptide are provided in the Supplementary Materials.
(§2) Antimicrobial Activity Assays. The antibacterial activity of the peptides was determined using a method designed from the National Committee for Clinical Laboratory Standards (NCCLS) in the United States. All the strains used in the experiment are preserved in the laboratory. Briefly, log phase bacterial cells were diluted in MHB to a final concentration of 0.5-1x10^5 CFU/mL. Subsequently, 50μL of different concentrations of polypeptides were incubated with 50 μL of bacterial solution in sterile 96-well plates. In the minimum inhibitory concentration (MIC) assay, the plate was incubated at 37°C for 24 h, and the minimum inhibitory concentration (MIC) was determined by the absorbance at 492 nm of the microplate reader, and the minimum inhibitory concentration (MIC) inhibited 95% of bacteria grow. Determination of minimum bactericidal concentration: the plate was incubated at 37°C for 4 hours, 50 μL of the mixture was taken out of each well, diluted with an appropriate amount of PBS, smeared on the agar plate, and cultured overnight. Colonies were counted and the initial CFU/well was retrospectively calculated the following day. The lowest concentration of peptide that kills 99.9% of bacterial cells is the minimum bactericidal concentration (µM), Each test was replicated at least 3 times.

[2] = tested on: E. coli ATCC25922; assay type: cell-based, Escherichia coli; settings: for MBC E. coli ATCC25922: ATCC25922, 4 h; for MIC E. coli ATCC25922: ATCC25922, 24 h
Experimental: as §1
as §2, with “[…],” for “the plate was incubated at 37°C for 24 h,”

[3] = tested on: S. aureus ATCC29213; assay type: cell-based, Staphylococcus aureus; settings: for MBC S. aureus ATCC29213: ATCC29213, 4 h; for MIC S. aureus ATCC29213: ATCC29213, 24 h
Experimental: as §1, §2

[4] = tested on: A. baumannii ATCC19606; assay type: cell-based, Acinetobacter baumannii; settings: for MBC A. baumannii ATCC19606: ATCC19606, 4 h; for MIC A. baumannii ATCC19606: ATCC19606, 24 h
Experimental: as §1, §2

[5] = tested on: all tested bacteria; assay: Geometric mean MIC and therapeutic index, all strains; assay type: cell-based; settings: for reduced antibacterial efficacy compared with DiPGLa-H: from MICs of Table 2; for GMMIC All: geometric mean of the peptide MICs against all strains
Experimental: as §1, §2

[6] = tested on: S. aureus Mu50; assay type: cell-based, Staphylococcus aureus MRSA; settings: for MBC S. aureus Mu50: Mu50, 4 h; for MIC S. aureus Mu50: Mu50, 24 h
Experimental: as §1, §2

[7] = tested on: Gram-negative bacteria; assay: Geometric mean MIC and therapeutic index, Gram-negative; assay type: cell-based; settings: geometric mean of the peptide MICs against Gram-negative strains
Experimental: as §1, §2

[8] = tested on: P. aeruginosa ATCC27853; assay type: cell-based, Pseudomonas aeruginosa; settings: for MBC P. aeruginosa ATCC27853: ATCC27853, 4 h; for MIC P. aeruginosa ATCC27853: ATCC27853, 24 h
Experimental: as §1, §2

[9] = tested on: E. coli K88 outer membrane; assay: Outer membrane integrity assay (NPN uptake); assay type: cell-based, Escherichia coli; settings: 4 µM peptide; relative to 10 µg/mL polymyxin B = 100%
Experimental: (§3) The outer and inner membrane integrity of bacterial cells treated with peptides was assessed using NPN and PI staining, respectively. Full details are provided in the Supplementary Materials.
Membrane permeabilization. Outer membrane integrity assay. The fluorescent probe NPN (Sigma-Aldrich, catalog no. 104043, ≥98%) was used to assess the outer membrane integrity of DiPGLa-H or mucin-treated E. coli K88. Briefly, log-medium E. coli K88 cells (OD600 = 0.2) were incubated with NPN (10 μM) in 5 mM HEPES buffer (pH 7.4, containing 5 mM glucose) for 30 min, and background fluorescence was recorded for subtraction. (excitation λ = 350 nm, emission λ = 420 nm) using a microplate reader (Varioskan Flash; Thermo, America). Subsequently, 100 μL of cell suspension was mixed with an equal volume of peptide solutions ranging in concentration from 4 to 64 μM in a sterile 96-well black plate. Fluorescence was recorded over time until no further increase in fluorescence was detected. Each test was performed independently, in duplicate, with three biological replicates, and results were converted to percent NPN uptake using the equation. NPN uptake (%) = (Fobs – Fbuffer)/ (Fpositive – Fbuffer) ×100%.
where Fobs is the observed fluorescence at a given peptide concentration, Fbuffer is the fluorescence of the buffer, and Fpositive is the fluorescence of NPN with microbial cells upon addition of 10 μg/mL polymyxin B (Sigma), which was used as a positive control because of its strong outer membrane-permeabilizing property. Untreated cell suspension served as the negative control.

[10] = tested on: S. aureus ATCC 25923; settings: cited from earlier work
Experimental: (§4) PGLa, an amphibian 21-residue cationic AMP, with a net charge of +4, was found in the skin of the toad Xenopus laevis ([6]). The minimum inhibitory concentration (MIC) of PGLa against Escherichia coli 25922 and S. aureus 25923 were 10–50 μg/mL and 50–100 μg/mL, respectively ([6]). […] The rep ...

[11] = tested on: E. coli ATCC 25922; settings: cited from earlier work
Experimental: as §4

[12] = tested on: E. coli K88 inner membrane; assay: Inner membrane integrity assay (PI); assay type: cell-based, Escherichia coli; settings: 4 µM, 16 µM and 64 µM peptide
Experimental: as §3
Inner membrane integrity assay. E. coli K88 cells were washed and resuspended in 0.01 mol l−1 of PBS (pH 7.4) to obtain an OD600 of 0.5, followed by the addition of 10 nmol l−1 of PI (Thermo Fisher Scientific, catalogue no. P1304MP) in the presence of […]. After incubation for 30 min, fluorescence was measured with the excitation wavelength at 535 nm and emission wavelength at 615 nm.

[13] = tested on: E. coli K88; assay type: cell-based, Escherichia coli
Experimental: as §1
as §2, with “The lowest concentration of peptide that kills 99.9% of bacterial cells is the minimum bactericidal concentration (µM), Each test was replicated at least 3 times.” left out

[14] = tested on: Pseudomonas aeruginosa; settings: cited from earlier work
From the text: (§5) To date, there is a lack of systematic comparative study on the bacteriostatic activity and biosafety of PGLa and its variants, which precludes the determination of the variant with the highest potential for application. It has been more than 30 years since the discovery of PGLa in 1983 to the recent discovery of new PGLa-derived peptides.

[15] = tested on: MRSA; settings: cited from earlier work
From the text: as §5

[16] = tested on: Acinetobacter nosocomial Ab113; settings: cited from earlier work
From the text: as §5

[17] = tested on: Helicobacter pylori; settings: cited from earlier work
From the text: as §5

[18] = tested on: S. aureus; settings: cited from earlier work
Experimental: as §4

[19] = tested on: E. coli; settings: cited from earlier work
Experimental: as §4

[20] = first of two independent studies
[21] = second of two independent studies

## KIAKGALKALKIAKVALKAL-NH2 (C-terminus assumed) [kiadin-2]
[1]
  GMMIC Gram-positive: 32 µM
[2]
  MBC E. coli ATCC25922: 16 µM
  MIC E. coli ATCC25922: 8 µM
[3]
  MBC S. aureus ATCC29213: 32 µM
  MIC S. aureus ATCC29213: 32 µM
[4]
  MBC A. baumannii ATCC19606: 4 µM
  MIC A. baumannii ATCC19606: 4 µM
[5]
  reduced antibacterial efficacy compared with DiPGLa-H: 2–8 times
  GMMIC All: 8.98 µM
[6]
  MBC S. aureus Mu50: 32 (32) µM
  MIC S. aureus Mu50: 32 (32) µM
[7]
  GMMIC Gram-negative: 4.76 µM
[8]
  MBC P. aeruginosa ATCC27853: 8 µM
  MIC P. aeruginosa ATCC27853: 4 µM

## KIAKVALKAL-NH2 (C-terminus assumed) [PGLa-H]
[1]
  GMMIC Gram-positive: 128 µM
[2]
  MBC E. coli ATCC25922: > 128 µM
  MIC E. coli ATCC25922: > 128 µM
[3]
  MBC S. aureus ATCC29213: > 128 µM
  MIC S. aureus ATCC29213: > 128 µM
[4]
  MBC A. baumannii ATCC19606: > 128 µM
  MIC A. baumannii ATCC19606: > 128 µM
[5]
  GMMIC All: 128 µM
[9]
  outer membrane permeability (NPN uptake): failed to exhibit any discernible outer membrane permeability
[6]
  MBC S. aureus Mu50: >128 (>128) µM
  MIC S. aureus Mu50: >128 (>128) µM
[7]
  GMMIC Gram-negative: 128 µM
[8]
  MBC P. aeruginosa ATCC27853: > 128 µM
  MIC P. aeruginosa ATCC27853: > 128 µM
[10]
  MIC S. aureus ATCC 25923: 8.7 µg/mL
[11]
  MIC E. coli ATCC25922: 23.6 µg/mL
[12]
  PI-DNA fluorescence intensity: relatively constant PI-DNA fluorescence intensity

## GMASKAGAIAGKIAKVALKAL-NH2 (C-terminus assumed) [PGLa]
[1]
  GMMIC Gram-positive: 64 µM
[2]
  MBC E. coli ATCC25922: > 64 µM
  MIC E. coli ATCC25922: > 64 µM
[3]
  MBC S. aureus ATCC29213: 64 µM
  MIC S. aureus ATCC29213: 64 µM
[4]
  MBC A. baumannii ATCC19606: 16 µM
  MIC A. baumannii ATCC19606: 16 µM
[5]
  GMMIC All: 45.25 µM
[6]
  MBC S. aureus Mu50: >64 (>64) µM
  MIC S. aureus Mu50: >64 (>64) µM
[7]
  GMMIC Gram-negative: 38.05 µM
[8]
  MBC P. aeruginosa ATCC27853: 64 µM
  MIC P. aeruginosa ATCC27853: 64 µM
[10]
  MIC S. aureus 25923: 50 to 100 µg/mL
[11]
  MIC E. coli 25922: 10 to 50 µg/mL
[13]; lowest concentration inhibiting 95% of growth, MHB, 0.5-1x10^5 CFU/mL, 37°C 24 h, absorbance 492 nm, three independent experiments
  MIC E. coli K88: 32 µM
[13]; lowest concentration killing >99.9% of cells, 37°C 4 h, plating, colony count, three independent trials
  MBC E. coli K88: 64 µM

## KIAKVALKALKIAKGALKAL-NH2 (C-terminus assumed) [kiadin-1]
[1]
  GMMIC Gram-positive: 22.63 µM
[2]
  MBC E. coli ATCC25922: 64 µM
  MIC E. coli ATCC25922: 32 µM
[3]
  MBC S. aureus ATCC29213: 16 µM
  MIC S. aureus ATCC29213: 16 µM
[4]
  MBC A. baumannii ATCC19606: 4 µM
  MIC A. baumannii ATCC19606: 4 µM
[5]
  reduced antibacterial efficacy compared with DiPGLa-H: 2–8 times
  GMMIC All: 14.25 µM
[14]; [20]
  MIC Pseudomonas aeruginosa ATCC 25922: 6 µM
[14]; [21]
  MIC Pseudomonas aeruginosa ATCC 25922: > 32 µg/mL
[15]; [20]
  MIC MRSA: 3 µM
[15]; [21]
  MIC MRSA: 16 µg/mL
[6]
  MBC S. aureus Mu50: 32 (32) µM
  MIC S. aureus Mu50: 32 (32) µM
[7]
  GMMIC Gram-negative: 11.31 µM
[8]
  MBC P. aeruginosa ATCC27853: 16 µM
  MIC P. aeruginosa ATCC27853: 8 µM

## GMASKAGSVLGKVAKVALKAAL-NH2 (C-terminus assumed) [PGLa-AM1]
[1]
  GMMIC Gram-positive: 64 µM
[2]
  MBC E. coli ATCC25922: > 64 µM
  MIC E. coli ATCC25922: > 64 µM
[3]
  MBC S. aureus ATCC29213: > 64 µM
  MIC S. aureus ATCC29213: > 64 µM
[4]
  MBC A. baumannii ATCC19606: 32 µM
  MIC A. baumannii ATCC19606: 32 µM
[5]
  GMMIC All: 57.02 µM
[16]
  MIC Acinetobacter nosocomial Ab113: 128 µg/mL
[17]
  MIC Helicobacter pylori: 1 µg/mL
[6]
  MBC S. aureus Mu50: >64 (>64) µM
  MIC S. aureus Mu50: >64 (>64) µM
[7]
  GMMIC Gram-negative: 53.82 µM
[8]
  MBC P. aeruginosa ATCC27853: > 64 µM
  MIC P. aeruginosa ATCC27853: 64 µM
[18]
  MIC S. aureus: 25 µM
[19]
  MIC E. coli: 12.5 µM
